# Results reported in patent US10681909B2, “Herbicidal triazoles” (FMC Corporation, priority 2014, dated 2020).
# Tests used:
# [1] = system: barnyardgrass; assay: Test A preemergence; assay type: in vivo, Echinochloa crus-galli; settings: 0 to 100 scale (0 no effect, 100 complete control)
# In short: (§1)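 Test chemicals in a non-phytotoxic solvent with surfactant were applied as a directed soil spray preemergence to seeds sown in loam/sand. Postemergence sprays went to plants 2–10 cm tall at the one- to two-leaf stage. A dash means no result.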
# [2] = system: foxtail, giant; assay: Test A preemergence; assay type: in vivo, Setaria faberii; settings: 0 to 100 scale (0 no effect, 100 complete control)
# In short: as §1
# [3] = system: pigweed; assay: Test A preemergence; assay type: in vivo, Amaranthus retroflexus; settings: 0 to 100 scale (0 no effect, 100 complete control)
# In short: as §1
# [4] = system: barnyardgrass; assay: Test A postemergence; assay type: in vivo, Echinochloa crus-galli; settings: 0 to 100 scale (0 no effect, 100 complete control), approx. 10 d
# In short: as §1
# [5] = system: foxtail, giant; assay: Test A postemergence; assay type: in vivo, Setaria faberii; settings: 0 to 100 scale (0 no effect, 100 complete control), approx. 10 d
# In short: as §1
# [6] = system: pigweed; assay: Test A postemergence; assay type: in vivo, Amaranthus retroflexus; settings: 0 to 100 scale (0 no effect, 100 complete control), approx. 10 d
# In short: as §1
# [7] = system: wheat; assay: Test A postemergence; assay type: in vivo, Triticum aestivum; settings: 0 to 100 scale (0 no effect, 100 complete control), approx. 10 d
# In short: as §1
# [8] = system: corn; assay: Test A postemergence; assay type: in vivo, Zea mays; settings: 0 to 100 scale (0 no effect, 100 complete control), approx. 10 d
# In short: as §1
# [9] = system: rice; assay: Test B flooded paddy test; assay type: in vivo, Oryza sativa; settings: 250 g ai/ha, applied to paddy water at 2-leaf stage, visual rating after 13 to 15 d, scale 0 (no effect) to 100 (complete control)
# In short: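 Pots were flooded to 3 cm above the soil at treatment, and compounds were applied directly into the paddy water. That depth was held throughout. After 13 to 15 d in a greenhouse, plants were rated visually against untreated controls.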
# [10] = system: ryegrass, Italian; assay: Test C postemergence; assay type: in vivo, Lolium multiflorum
# In short: (§2)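 Seeds were planted in loam soil plus sand and sprayed preemergence. In parallel, potted plants in a peat-based medium were sprayed postemergence at 2 to 18 cm (1- to 4-leaf stage). Compounds were formulated in non-phytotoxic solvent with surfactant.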
# [11] = system: wheat (winter wheat); assay: Test C postemergence; assay type: in vivo, Triticum aestivum
# In short: as §2
# [12] = system: galium; assay: Test C postemergence; assay type: in vivo, Galium aparine
# In short: as §2
# [13] = system: corn; assay: Test C postemergence; assay type: in vivo, Zea mays
# In short: as §2
# [14] = system: crabgrass, large; assay: Test C postemergence; assay type: in vivo, Digitaria sanguinalis
# In short: as §2
# [15] = system: lambsquarters; assay: Test C postemergence; assay type: in vivo, Chenopodium album
# In short: as §2
# [16] = system: nutsedge, yellow; assay: Test C postemergence; assay type: in vivo, Cyperus esculentus
# In short: as §2
# [17] = system: pigweed; assay: Test C postemergence; assay type: in vivo, Amaranthus retroflexus
# In short: as §2
# [18] = system: soybean; assay: Test C postemergence; assay type: in vivo, Glycine max
# In short: as §2
# [19] = system: oilseed rape; assay: Test C postemergence; assay type: in vivo, Brassica napus
# In short: as §2
# [20] = system: waterhemp; assay: Test C postemergence; assay type: in vivo, Amaranthus rudis
# In short: as §2
# [21] = system: velvetleaf; assay: Test C postemergence; assay type: in vivo, Abutilon theophrasti
# In short: as §2
compound,measurement,setting,value
COc1nc(-c2ccc(Cl)cc2)nn1Cc1ccnc(C(F)(F)F)c1 [Compound 28],"Plant response rating, Barnyardgrass",[1]; 125 g ai/ha,30
same,"Plant response rating, Barnyardgrass","[1]; 500 g ai/ha, approx. 10 d",90
same,"Plant response rating, Foxtail, Giant",[2]; 125 g ai/ha,100
same,"Plant response rating, Foxtail, Giant","[2]; 500 g ai/ha, approx. 10 d",100
same,"Plant response rating, Pigweed",[3]; 125 g ai/ha,100
same,"Plant response rating, Pigweed","[3]; 500 g ai/ha, approx. 10 d",100
same,"Plant response rating, Barnyardgrass",[4]; 125 g ai/ha,30
same,"Plant response rating, Barnyardgrass",[4]; 500 g ai/ha,80
same,"Plant response rating, Foxtail, Giant",[5]; 125 g ai/ha,70
same,"Plant response rating, Foxtail, Giant",[5]; 500 g ai/ha,90
same,"Plant response rating, Pigweed",[6]; 125 g ai/ha,100
same,"Plant response rating, Pigweed",[6]; 500 g ai/ha,100
same,"Plant response rating, Wheat",[7]; 125 g ai/ha,0
same,"Plant response rating, Wheat",[7]; 500 g ai/ha,10
same,"Plant response rating, Corn",[8]; 125 g ai/ha,10
same,"Plant response rating, Corn",[8]; 500 g ai/ha,40
same,"Plant response rating, Rice, Flood",[9],30
same,Plant response rating (scale of 0 to 100 where 0 is no effect and 100 is complete control),[10]; 31 g ai/ha,5
same,Plant response rating (scale of 0 to 100 where 0 is no effect and 100 is complete control),[10]; 62 g ai/ha,5
same,Plant response rating (scale of 0 to 100 where 0 is no effect and 100 is complete control),[10]; 125 g ai/ha,10
same,Plant response rating (scale of 0 to 100 where 0 is no effect and 100 is complete control),[10]; 250 g ai/ha,15
same,Plant response rating (scale of 0 to 100 where 0 is no effect and 100 is complete control),[11]; 31 g ai/ha,0
same,Plant response rating (scale of 0 to 100 where 0 is no effect and 100 is complete control),[11]; 62 g ai/ha,5
same,Plant response rating (scale of 0 to 100 where 0 is no effect and 100 is complete control),[11]; 125 g ai/ha,5
same,Plant response rating (scale of 0 to 100 where 0 is no effect and 100 is complete control),[11]; 250 g ai/ha,10
same,Plant response rating (scale of 0 to 100 where 0 is no effect and 100 is complete control),[12]; 31 g ai/ha,85
same,Plant response rating (scale of 0 to 100 where 0 is no effect and 100 is complete control),[12]; 62 g ai/ha,90
same,Plant response rating (scale of 0 to 100 where 0 is no effect and 100 is complete control),[12]; 125 g ai/ha,90
same,Plant response rating (scale of 0 to 100 where 0 is no effect and 100 is complete control),[12]; 250 g ai/ha,95
same,Plant response rating (scale of 0 to 100 where 0 is no effect and 100 is complete control),[13]; 31 g ai/ha,5
same,Plant response rating (scale of 0 to 100 where 0 is no effect and 100 is complete control),[13]; 62 g ai/ha,10
same,Plant response rating (scale of 0 to 100 where 0 is no effect and 100 is complete control),[13]; 125 g ai/ha,15
same,Plant response rating (scale of 0 to 100 where 0 is no effect and 100 is complete control),[13]; 250 g ai/ha,15
same,Plant response rating (scale of 0 to 100 where 0 is no effect and 100 is complete control),[14]; 31 g ai/ha,10
same,Plant response rating (scale of 0 to 100 where 0 is no effect and 100 is complete control),[14]; 62 g ai/ha,10
same,Plant response rating (scale of 0 to 100 where 0 is no effect and 100 is complete control),[14]; 125 g ai/ha,10
same,Plant response rating (scale of 0 to 100 where 0 is no effect and 100 is complete control),[14]; 250 g ai/ha,30
same,Plant response rating (scale of 0 to 100 where 0 is no effect and 100 is complete control),[15]; 31 g ai/ha,100
same,Plant response rating (scale of 0 to 100 where 0 is no effect and 100 is complete control),[15]; 62 g ai/ha,80
same,Plant response rating (scale of 0 to 100 where 0 is no effect and 100 is complete control),[15]; 125 g ai/ha,98
same,Plant response rating (scale of 0 to 100 where 0 is no effect and 100 is complete control),[15]; 250 g ai/ha,98
same,Plant response rating (scale of 0 to 100 where 0 is no effect and 100 is complete control),[16]; 31 g ai/ha,5
same,Plant response rating (scale of 0 to 100 where 0 is no effect and 100 is complete control),[16]; 62 g ai/ha,5
same,Plant response rating (scale of 0 to 100 where 0 is no effect and 100 is complete control),[16]; 125 g ai/ha,15
same,Plant response rating (scale of 0 to 100 where 0 is no effect and 100 is complete control),[16]; 250 g ai/ha,10
same,Plant response rating (scale of 0 to 100 where 0 is no effect and 100 is complete control),[17]; 31 g ai/ha,95
same,Plant response rating (scale of 0 to 100 where 0 is no effect and 100 is complete control),[17]; 62 g ai/ha,95
same,Plant response rating (scale of 0 to 100 where 0 is no effect and 100 is complete control),[17]; 125 g ai/ha,98
same,Plant response rating (scale of 0 to 100 where 0 is no effect and 100 is complete control),[17]; 250 g ai/ha,100
same,Plant response rating (scale of 0 to 100 where 0 is no effect and 100 is complete control),[18]; 31 g ai/ha,45
same,Plant response rating (scale of 0 to 100 where 0 is no effect and 100 is complete control),[18]; 62 g ai/ha,70
same,Plant response rating (scale of 0 to 100 where 0 is no effect and 100 is complete control),[18]; 125 g ai/ha,55
same,Plant response rating (scale of 0 to 100 where 0 is no effect and 100 is complete control),[18]; 250 g ai/ha,60
same,Plant response rating (scale of 0 to 100 where 0 is no effect and 100 is complete control),"[19]; Oilsee Rape, 250 g ai/ha",95
same,Plant response rating (scale of 0 to 100 where 0 is no effect and 100 is complete control),"[19]; Oilseed Rape, 31 g ai/ha",25
same,Plant response rating (scale of 0 to 100 where 0 is no effect and 100 is complete control),"[19]; Oilseed Rape, 62 g ai/ha",55
same,Plant response rating (scale of 0 to 100 where 0 is no effect and 100 is complete control),"[19]; Oilseed Rape, 125 g ai/ha",70
same,Plant response rating (scale of 0 to 100 where 0 is no effect and 100 is complete control),[20]; 31 g ai/ha,98
same,Plant response rating (scale of 0 to 100 where 0 is no effect and 100 is complete control),[20]; 62 g ai/ha,95
same,Plant response rating (scale of 0 to 100 where 0 is no effect and 100 is complete control),[20]; 125 g ai/ha,95
same,Plant response rating (scale of 0 to 100 where 0 is no effect and 100 is complete control),[20]; 250 g ai/ha,98
same,Plant response rating (scale of 0 to 100 where 0 is no effect and 100 is complete control),[21]; 31 g ai/ha,60
same,Plant response rating (scale of 0 to 100 where 0 is no effect and 100 is complete control),[21]; 62 g ai/ha,60
same,Plant response rating (scale of 0 to 100 where 0 is no effect and 100 is complete control),[21]; 125 g ai/ha,65
same,Plant response rating (scale of 0 to 100 where 0 is no effect and 100 is complete control),[21]; 250 g ai/ha,80
